Like-named read-outs stand apart in the source and are kept apart here.
Tests used:
[1] = target: human STING (biotinylated STING protein, residues 139-379 of Q86WV6, H232R) (Homo sapiens, UniProt Q86WV6, H232R); assay: STING SPA binding assay
Procedure: The HIS tag is cleaved after purification and prior to biotinylation.
Test compounds (80 nL) were added with an acoustic dispenser (EDC Biosystems) in 100% DMSO for a final assay concentration of 1% DMSO. Plates were centrifuged for 1 min and incubated for 60 min at room temperature. […] Plates were dark adapted for 2 h and read on a ViewLux (Perkin Elmer) for 12 min per plate.

[2] = test system: human STING pathway (THP1-ISG cells); assay: STING human cell reporter assay; assay type: cell-based; conditions: IRF-inducible SEAP reporter, 24 h, means of at least three values
Procedure: Agonism of the human STING pathway is assessed in THP1-ISG cells (Invivogen, cat #thp-isg) derived from human THP1 monocyte cell line by stable integration of an interferon regulatory factor (IRF)-inducible SEAP reporter construct. THP1-Blue ISG cells express a secreted embryonic alkaline phosphatase (SEAP) reporter gene under the control of an ISG54 minimal promoter in conjunction with five interferon (IFN)-stimulated response elements. As a result, THP1-Blue ISG cells allow the monitoring of IRF activation by determining the activity of SEAP. The levels of IRF-induced SEAP in the cell culture supernatant are readily assessed with alkaline phosphatase detection medium, a SEAP detection reagent. These cells are resistant to Zeocin. 2′3′cGAMP was used as a positive control in this assay. To run the assay, 60,000 cells were dispensed in 30 μL/well of a white, opaque bottom tissue culture treated 384-well plate.
Test compounds were added in a volume of 10 μL (1% DMSO final concentration). Compounds are initially prepared in 100% DMSO, spotted on an compound dilution plate and then diluted in media prior to transfer. The assay was incubated for 24 h at 37° C., 5% CO2 then plates were centrifuged at 1200 rpm (120×g) for 5 min. After final incubation, 90 μL of alkaline phosphatase detection medium-substrate was added to each well of a new 384-well clear plate and 10 μL of the cell supernatant was transferred from the assay plate to the new alkaline phosphatase detection medium-plate using a Biomek FX and mixed 4 times. Plates were incubated at RT for 20 min then absorbance at 655 nm was determined on the Tecan Safire2.

[3] = target: T1, human STING (E. coli produced truncated STING protein) (Homo sapiens, UniProt Q86WV6, H232R); assay: STING SPR binding assay; conditions: steady state affinity, 1:1 binding model, 25° C.
T1 construct: contains residues 139-379 of Q86WV6 with an R at position 232 (H232R); HIS tag (N, cleaved yes); made in house; host or cells: E. coli
T1 sequence (Q86WV6 139-379 H232R): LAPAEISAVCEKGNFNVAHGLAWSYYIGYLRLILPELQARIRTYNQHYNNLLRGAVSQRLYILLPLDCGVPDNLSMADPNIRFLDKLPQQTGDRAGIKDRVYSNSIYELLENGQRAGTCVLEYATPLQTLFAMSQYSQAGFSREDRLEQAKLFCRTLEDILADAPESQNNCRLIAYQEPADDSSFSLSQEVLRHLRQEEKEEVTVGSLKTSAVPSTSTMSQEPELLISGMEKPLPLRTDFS
Procedure: Compounds were analyzed on an S200 biacore SPR instrument (GE Healthcare). E. coli produced truncated STING protein was immobilized on a series S streptavidin chip via biotin capture (GE Healthcare #BR100531) with. […] Steady state affinity and kinetic evaluations were carried out using 1:1 binding model (STING was treated as a dimer). Run parameters were as follows: 60 sec on, 300 sec off for the IFM compounds, cyclic-di-GMP (60 sec on/60 sec off), thiol isomer 1 (60 sec on/300 sec off) and cGAMP (60 sec on/1200 sec off) with a flow rate of 50 μL/min and data collection at 40 Hz at 25° C.

[4] = test system: THP1-Blue ISG cells (IFN-β secretion); assay: Human interferon-β induction assay; assay type: cell-based; conditions: total cumulative IFN-β induction over the dose range tested (0.78 to 50 uM) in THP-1 cells after a 24 hour exposure
Procedure: THP1-Blue ISG cells are used to measure the secretion of IFN-β into the culture supernatant following STING pathway activation. To run the assay, anti-IFN-β capture antibodies were coated on […] well MultiArray plates (Mesoscale Discovery). After a one hour incubation, plates were washed and 50 μL supernatant from the STING human cell reporter assay plates or IFN-β standards were mixed with 20 μL Sulfotag-conjugated detection antibody in the coated plates. Plates were incubated, shaking for 2 h, washed, and read buffer was applied. Electrochemiluminescence was measured on the SectorImager.

[5] = read-out: hSTING SPA IC50, displacement of [3H]-2′3′-cGAMP from biotin-STING, means of at least three values

human STING (biotinylated STING protein, residues 139-379 of Q86WV6, H232R), sequence (Q86WV6 139-379 H232R, one chain of several): as the sequence (Q86WV6 139-379 H232R) above

| SMILES | IC50 [1] | EC50 ([2]; Homo sapiens) | EC50 [2] | Kd [3] | IC50 [1, 5] | human IFN-β (ranking value) [4] |
| --- | --- | --- | --- | --- | --- | --- |
| CO[C@H]1[C@H]2OS(=O)(=O)NC[C@H]3O[C@@H](n4cnc5c(N)ncnc54)C[C@@H]3OP(=O)(O)OC[C@H]1O[C@H]2n1cnc2c(=O)[nH]c(N)nc21 [Compound 12] | 220 nM | 140 nM | – | – | – | – |
| Nc1ncnc2c1ncn2[C@@H]1O[C@@H]2COP(=O)(O)O[C@H]3C[C@H](n4cnc5c(N)ncnc54)O[C@@H]3CNS(=O)(=O)O[C@@H]1[C@@H]2F [Compound 36] | > 100000 nM | 2460 nM | – | – | – | – |
| Nc1nc2c(ncn2C2OC3CNS(=O)(=O)OC4C(COP(=O)(O)OC2C3)OC(n2cnc3c(N)ncnc32)C4F)c(=O)[nH]1 (stereo not shown) [Compound 26] | 28400 nM | 1020 nM | – | – | – | – |
| Nc1nc2c(ncn2[C@@H]2O[C@@H]3COP(=O)(O)O[C@H]4[C@@H](O)[C@H](n5cnc6c(N)ncnc65)O[C@@H]4COP(=O)(O)O[C@@H]2[C@@H]3O)c(=O)[nH]1 [c-GAMP, (2′,3′)cyclic guanosine monophosphate-adenosine monophosphate, reference compound] | – | – | 530 nM | – | – | – |
| Nc1ncnc2c1ncn2[C@@H]1O[C@@H]2CNS(=O)(=O)O[C@@H]3[C@H](F)[C@@H](COP(=O)(O)O[C@H]2[C@H]1F)O[C@H]3n1cnc2c(=O)[nH]cnc21 [Compound 39] | 21 nM | 65 nM | – | – | – | – |
| Nc1nc2c(ncn2[C@@H]2O[C@@H]3COP(=O)(O)O[C@H]4[C@@H](O)[C@H](n5cnc6c(=O)[nH]c(N)nc65)O[C@@H]4COP(=O)(O)O[C@H]3[C@H]2O)c(=O)[nH]1 [3′,3′cGMP, reference compound] | – | – | 8700 nM | 3970 nM | 8620 nM | – |
| CO[C@H]1[C@H]2OP(=O)(O)OC[C@H]3O[C@@H](n4cnc5c(N)ncnc54)C[C@@H]3NS(=O)(=O)OC[C@H]1O[C@H]2n1cnc2c(=O)[nH]c(N)nc21 [Compound 20] | 47 nM | ~220 nM | – | 8.2 nM | – | 6045 pg/mL |
| Nc1nc2c(nnn2[C@@H]2O[C@@H]3CNS(=O)(=O)O[C@H]4[C@@H](F)[C@H](n5cnc6c(N)ncnc65)O[C@@H]4COP(=O)(O)O[C@@H]2C3)c(=O)[nH]1 [Compound 37] | 12400 nM | 1350 nM | – | – | – | – |
| Nc1nc2c(ncn2[C@@H]2O[C@@H]3COP(=O)(O)O[C@H]4[C@@H](F)[C@H](n5cnc6c(N)ncnc65)O[C@@H]4CNS(=O)(=O)O[C@@H]2[C@@H]3O)c(=O)[nH]1 [Compound 11] | 15 nM | 30 nM | – | 6.5 nM | – | 14896 pg/mL |
| CO[C@H]1[C@H]2OS(=O)(=O)NC[C@]34CO[C@H](C3OP(=O)(O)OC[C@H]1O[C@H]2n1cnc2c(=O)[nH]c(N)nc21)[C@H](n1cnc2c(N)ncnc21)O4 (stereo partly shown) [Compound 9] | 2790 nM | 110 nM | – | 280 nM | – | 8104 pg/mL |
| Nc1nc2c(ncn2[C@@H]2O[C@@H]3CNS(=O)(=O)OC4[C@@H](F)[C@H](n5cnc6c(N)ncnc65)O[C@@H]4COP(=O)(O)O[C@@H]2[C@@H]3O)c(=O)[nH]1 (stereo partly shown) [Compound 47] | 1300 nM | ~39 nM | – | – | – | – |
| Nc1ncnc2c1ncn2C1O[C@@H]2COP(=O)(O)O[C@@H]3[C@H](O)C(CNS(=O)(=O)O[C@H]2[C@H]1F)O[C@H]3n1cnc2c(N)ncnc21 (stereo partly shown) [Compound 41] | > 100000 nM | 22500 nM | – | – | – | – |
| Nc1nc2c(ncn2C2O[C@@H]3COP(=O)(O)O[C@H]4C[C@H](n5cnc6c(N)ncnc65)OC4CNS(=O)(=O)O[C@@H]2[C@@H]3O)c(=O)[nH]1 (stereo partly shown) [Compound 18] | 1140 nM | 110 nM | – | – | – | 15249 pg/mL |
| Nc1ncnc2c1ncn2[C@@H]1O[C@@H]2COP(=O)(O)O[C@H]3[C@@H](O)[C@H](n4cnc5c(N)ncnc54)O[C@@H]3COP(=O)(O)O[C@H]2[C@H]1O [3′,3′cAMP, reference compound] | – | – | 17800 nM | 5990 nM | 73100 nM | 539 pg/mL |
| COC1C2COP(=O)(O)OC3C(CNS(=O)(=O)OC1C(n1nnc4c(=O)[nH]c(N)nc41)O2)OC(n1cnc2c(N)ncnc21)C3F (stereo not shown) [Compound 51] | 11 nM | – | – | – | – | – |
| CO[C@H]1[C@H]2OS(=O)(=O)NC[C@H]3O[C@@H](n4cnc5c(N)ncnc54)[C@@H](F)[C@@H]3O[P@](=O)(O)OC[C@H]1O[C@H]2n1cnc2c(=O)[nH]c(N)nc21 [Compound 28] | 190 nM | 99 nM | – | – | – | 12969 pg/mL |
| CO[C@H]1[C@H]2OS(=O)(=O)NC[C@H]3O[C@@H](n4cnc5c(N)ncnc54)[C@H](F)[C@@H]3OP(=O)(O)OC[C@H]1O[C@H]2n1cc(F)c2c(=O)n(C)cnc21 [Compound 55] | 220 nM | – | – | – | – | 25628 pg/mL |
| Nc1ncnc2c1ncn2[C@@H]1O[C@@H]2CNS(=O)(=O)O[C@@H]3[C@H](O)[C@@H](COP(=O)(O)O[C@H]2[C@H]1O)O[C@H]3n1cnc2c(N)ncnc21 [Compound 30] | > 100000 nM | 13000 nM | – | – | – | – |
| CO[C@H]1[C@H]2OP(=O)(O)OC[C@H]3O[C@@H](n4cnc5c(=O)[nH]cnc54)[C@H](F)[C@@H]3OS(=O)(=O)NC[C@H]1O[C@H]2n1cnc2c(=O)[nH]c(N)nc21 [Compound 53] | 4010 nM | – | – | – | – | 11036 pg/mL |
| Nc1ncnc2c1ncn2[C@@H]1O[C@@H]2COP(=O)(O)O[C@@H]3[C@H](F)[C@@H](CNS(=O)(=O)O[C@H]2[C@H]1F)O[C@H]3n1cnc2c(N)ncnc21 [Compound 35] | > 100000 nM | 7080 nM | – | – | – | – |
| CO[C@H]1[C@H]2OP(=O)(O)OC[C@H]3OC(n4cnc5c(N)ncnc54)[C@H](F)[C@@H]3OS(=O)(=O)NC[C@H]1O[C@H]2n1cnc2c(=O)[nH]c(N)nc21 (stereo partly shown) [Compound 22] | 92 nM | 26 nM | – | – | – | – |
| CO[C@H]1[C@H]2OS(=O)(=O)NC[C@H]3O[C@@H](n4cnc5c(N)ncnc54)[C@H](F)[C@@H]3OP(=O)(O)OC[C@H]1O[C@H]2n1cc(F)c2c(=O)[nH]cnc21 [Compound 54] | 750 nM | – | – | – | – | 18578 pg/mL |
| Nc1nc2c(nnn2[C@@H]2O[C@@H]3COP(=O)(O)O[C@H]4[C@@H](F)[C@H](n5cnc6c(N)ncnc65)O[C@@H]4CNS(=O)(=O)O[C@@H]2C3)c(=O)[nH]1 [Compound 15] | 360 nM | 43 nM | – | – | – | 15611 pg/mL |
| CO[C@H]1[C@H]2OS(=O)(=O)NC[C@H]3O[C@@H](n4cnc5c(N)ncnc54)C[C@@H]3OP(=O)(O)OC[C@H]1O[C@H]2n1cnc2c(=O)[nH]cnc21 [Compound 40] | 66 nM | 38 nM | – | – | – | – |
| CO[C@H]1[C@H]2OP(=O)(O)OC[C@H]3OC(n4cnc5c(N)ncnc54)C[C@@H]3OS(=O)(=O)NC[C@H]1O[C@H]2n1cnc2c(=O)[nH]c(N)nc21 (stereo partly shown) [Compound 24] | 5000 nM | 11 nM | – | – | – | 11534 pg/mL |

— patent publication US20210009630A1, “CYCLIC DINUCLEOTIDES AS STING AGONISTS” (Janssen Biotech, Inc., priority 2017, published 2021)
